In PubChem BioAssay (NCI) one finds GI50 and TGI data, which are given here for 8 compounds.

What all share (test): NCI anticancer screen, dose series, 48 h
Experiment [1] concerns A549 NSCLC.
Experiment [2] relates to HCC-2998 colon.
The subject of experiment [3] is HOP-92 NSCLC.
Experiment [4] relates to IGROV1 ovarian.
For experiment [5], the system named is MCF7 breast.
Experiment [6] concerns MDA-MB-231 breast.
Experiment [7] relates to NCI-H23 lung.
Experiment [8] deals with NCI-H460 lung.
The test system of experiment [9] is NCI-H522 lung.
Experiment [10] deals with SK-MEL-5 melanoma.

Where “and” joins values, the source holds several entries; their conditions need not be identical. Identical values can stand only once.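 Compound exposure: 48 hours, 5 concentrations, 96-well plates. At the GI50, growth is halved. TGI: total growth inhibition.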

With `COc1cccc2c1C(=O)c1c(O)c3c(c(O)c1C2=O)C[C@@](O)(C(=O)CO)C[C@@H]3OC1CC(OC(C)=O)C(OC(C)=O)C(C)O1` (stereo partly specified), the GI50 in [1] was 410 nM; in experiment [2] it was 1280 nM; in experiment [3], 239 nM; in experiment [5] it was less than 28.4 nM; in experiment [6], 2890 nM; in experiment [7], 227 nM. Also, the values for the GI50 in experiment [8], in experiment [9] and in [10] were less than 23.9 nM, 578 nM and 249 nM, respectively. Besides, the TGI in experiment [1] was 2770 nM; in experiment [2], 3190 nM; in experiment [4] it was 3910 nM; in experiment [5] it was 7640 nM; in [6], 15600 nM; in [7] it was 1500 nM. Moreover, the TGI in experiment [8] came out at 1570 nM; in experiment [9], 3360 nM; in experiment [10], 1670 nM.

Take `FC(F)(F)c1[nH]ncc1-c1nc2c(N3CCCCC3)cc3[nH]ncc3c2c2c1CCCC2`: the GI50 in [1] is 816 nM; in experiment [2], 929 nM; in experiment [3], 290 nM; in [4], 556 nM; in [5], 514 nM; in experiment [6], 806 nM. For the same compound, the GI50 in experiment [7] was 791 nM; in experiment [8], 490 nM; in [9], 485 nM; in experiment [10], 637 nM. Moreover, the TGI in experiment [1] is more than 12500 nM; in experiment [2], 3060 nM; in [3], 1620 nM; in [4], 3660 nM; in [5] it was more than 15400 nM; in experiment [6], 3080 nM. In addition, the TGI in experiment [7] came to 2990 nM; in [8], 1900 nM; in [9], 3240 nM; in experiment [10], 1500 nM.

Regarding `O=C(C[C@@]1(O)C(=O)Nc2c(Cl)ccc(Cl)c21)c1ccc(C2CC2)cc1`, the GI50 in [1] was 729 nM; in experiment [2], 888 nM; in [3], 1460 nM; in experiment [4], 446 nM; in experiment [5], 171 nM; in experiment [6] it was 798 nM. Further, the GI50 in experiment [7] is 634 nM; in experiment [8] it was 359 nM; in experiment [9], 68.2 nM; in experiment [10] it was 355 nM. For the same compound, the TGI in experiment [1] was 24000 nM; in [2] it was 14800 nM; in experiment [3], 19700 nM; in experiment [4] it was 13600 nM; in experiment [5] it was 18200 nM; in experiment [6], 15200 nM. For the same compound, the TGI is 19300 nM in experiment [7], 11400 nM in experiment [8], 14100 nM in experiment [9] and 11600 nM in experiment [10].

Regarding `Cc1cc(Nc2cc(CN3CCOCC3)c3nc(C)c(Cc4ccc(Cl)cc4F)n3n2)n[nH]1`, the GI50 in experiment [1] is 919 nM; in [2] it was 1490 nM; in [3], 1650 nM; in experiment [4], 2150 nM; in [5] it was 644 nM; in [6] it was 1570 nM. Also, the GI50 was 1720 nM in experiment [7], 437 nM in experiment [8], 566 nM in [9] and 2270 nM in [10]. Besides, the TGI in experiment [1] was determined as 6160 nM; in [2], 3130 nM; in [3], 5010 nM; in [4], 5570 nM; in experiment [5], 12900 nM; in [6] it was 5650 nM. Also, the TGI was determined as 8350 nM in experiment [7], 6630 nM in experiment [8], 2020 nM in [9] and 8720 nM in experiment [10].

Consider `O=C1c2ccc3c4c(ccc(c24)C(=O)N1CCCNCc1ccccc1)C(=O)N(CCCNCc1ccccc1)C3=O`, for which the GI50 is 131 nM in [1]; 154 nM in experiment [2]; 199 nM in experiment [3]; 110 nM in experiment [4]; 80.8 nM in experiment [5]; 238 nM in experiment [6]. For the same compound, the GI50 is 180 nM in experiment [7], 146 nM in [8], 142 nM in experiment [9] and 165 nM in experiment [10]. The TGI was 365 nM in [1]; 303 nM in [2]; 585 nM in [3]; 405 nM in experiment [4]; 330 nM in [5]; 917 nM in experiment [6]. Further, the TGI came out at 420 nM in [7], 579 nM in [8], 303 nM in experiment [9] and 302 nM in [10].

On to `COc1cc2cn3c4ccc(O)cc4nc(N)c3c2cc1OC`, for which the GI50 in experiment [1] was 839 nM; in experiment [2], 606 nM; in experiment [3], 669 nM; in experiment [4], 706 nM; in experiment [5] it was 174 nM; in [6] it was 2000 nM. Besides, the GI50 is 968 nM in [7], 289 nM in experiment [8], 71.3 nM in experiment [9] and 73.4 nM in [10]. The TGI in [1] worked out at 12900 nM; in [2], 7290 nM; in experiment [3], 8060 nM; in experiment [4] it was 15100 nM; in [5] it was 4150 nM; in [6] it was 15600 nM. The TGI in experiment [7] came out at 4880 nM; in experiment [8], 2360 nM; in [9], 1910 nM; in experiment [10], 505 nM.

For the compound `COc1ccc2[nH]c3c(C)c4cc[n+](C)cc4c(C)c3c2c1`, the GI50 in experiment [2] was 2410 nM and 1020 nM; in experiment [3] it was 239 nM and 1550 nM; in experiment [4], 1010 nM and 1130 nM; in experiment [5], 1510 nM and 885 nM; in experiment [6] it was 6340 nM and 1890 nM and 7410 nM; in experiment [7], 325 nM. In addition, the GI50 in [8] was 402 nM and 998 nM; in experiment [9] it was 167 nM and 82.5 nM; in [10], 2070 nM. Further, the TGI in experiment [6] was 53000 nM and 133000 nM; in experiment [7] it was 3.3 µM [middle of 4 runs]; in experiment [10], 7.15 µM [middle of 4 runs].

Take `CN(C)CCNC(=O)c1cccc2cc([N+](=O)[O-])ccc12`: the GI50 is 183 nM in experiment [1]; 1540 nM and 213 nM in experiment [2]; 1790 nM and 245 nM in experiment [4]; 1690 nM and 211 nM in experiment [7]; 390 nM in experiment [8]; 1650 nM and 213 nM in experiment [10]. Besides, the TGI in [1] was 2220 nM; in experiment [2], 3740 nM and 986 nM; in experiment [3], 1340 nM; in experiment [4], 14200 nM and 2320 nM; in [5], 15300 nM; in experiment [6], 6210 nM. The TGI is 6680 nM and 758 nM in experiment [7]; 2050 nM in experiment [8]; 2880 nM in experiment [9]; 4920 nM and 774 nM in experiment [10].
